Two molecules from patent publication US20130252813A1, “Herbicidal Compositions for Tolerant or Resistant Sugar Beet Crops” (Bayer CropScience AG, priority 1998, published 2013) can be followed below.

What all share (assay type): in vivo
Data set [1] deals with transgenic sugar beet. As to the kind of experiment: Damage to transgenic sugar beet (greenhouse experiment, Table 3). Conditions: greenhouse Table 3, application in the 4-5-leaf stage. Details: scale not given here.
Data set [2] deals with Galium aparine. Put plainly: Herbicidal action in sugar beet crop (greenhouse experiment, Table 3). The settings on record: application in the 4-5-leaf stage, scoring 3 weeks after application. From the text:
Seeds or rhizomes of monocotyledonous and dicotyledonous weeds are placed in sandy loam soil in cardboard pots, covered with soil and grown in the greenhouse under good growth conditions. […] The compositions according to the
Invention, which are formulated as wettable powders or as emulsion concentrates, are sprayed at various dosages onto the green plant organs at an application rate of 600 to 800 l of water per ha (converted). After the experimental plants have remained in the greenhouse for approx. 3 to 4 weeks under optimal growth conditions, the effect of the preparations is scored visually in comparison with untreated controls. The compositions according to the invention also have a good herbicidal activity against a broad spectrum of economically Important grass weeds and broad-leaved weeds when applied post-emergence.

For a further data set, the system named is Amaranthus retroflexus. As to the kind of experiment: Herbicidal action (field trial, sequential treatment, Table 8). The settings on record: scorings 22 days after application. As to the method:
(§1) Transgenic sugar beet plants with resistance to one or more herbicides (A) were grown together with typical weed plants in the open in 2×5 m plots under natural field conditions; alternatively, the weed population established naturally while the sugar beet plants grew. Treatment with the compositions according to the invention and, for control purposes, with separate application of the active ingredients of the components alone, was carried out under standard conditions with a plot sprayer at an application rate of 200-300 liters of water per hectare in parallel trials in accordance with the scheme of Table 1, i.e. pre-sowing/pre-emergence, […] or post-emergence at the early, medium or late stage.
(§2) […] Damage and development of all aerial plant organs was recorded. The scoring was done using a percentage scale (100% activity=all plants dead; 50% activity=50% of the plants and green plant organs dead; 0% activity=no discernible effect=like control plot). The score values of in each case 4 plots were averaged.

The subject of data set [3] is Setaria viridis. The data set is described as above. Conditions: scorings 22 days after application. The method, then: as §1, §2
The test system of data set [4] is Setaria viridis. Put plainly: Herbicidal action in sugar beet - field trial (Table 2). The settings on record: application in 2-4-leaf stage, scoring 3 weeks after application. As to the method:
as §1, §2

The test system of another data set is Kochia scoparia. Put plainly: Herbicidal action (field trial, Table 6). Conditions: application in the 3-5-leaf stage, scoring 4 weeks after application. The method, then: as §1
(§3) At 2, 4, 6 and 8 week intervals after application, the herbicidal activity of the active ingredients or active ingredient mixtures were scored visually by comparing the treated plots with untreated control plots. Damage and development of all aerial plant organs was recorded. The scoring was done using a percentage scale (100% activity=all plants dead; 50% activity=50% of the plants and green plant organs dead; 0% activity=no discernible effect=like control plot). The score values of in each case 4 plots were averaged.

Data set [5] has as its system Galium aparine. As to the kind of experiment: Herbicidal action (field trial, Table 6). Conditions: application in the 3-5-leaf stage, scoring 4 weeks after application. The method, then:
as §1, §3

Data set [6] concerns transgenic sugar beet. As to the kind of experiment: Damage to transgenic sugar beet - field trial (Table 2). The settings on record: application in 2-4-leaf stage. As to the method:
as §1, §3

The test system of another data set is Echinochloa crus-galli. Put plainly: Herbicidal action and selectivity in sugar beet crop (field trial, Table 4). The settings on record: application in 3-leaf stage, scoring 4 weeks after application. The method, then: as §1, §3
Data set [7] has as its system transgenic sugar beet. As to the kind of experiment: Damage to transgenic sugar beet (field trial, Table 5). The settings on record: application in the 3-5-leaf stage. As to the method: as §1, §3
In the next data set the test system is Avena fatua. As to the kind of experiment: Herbicidal action and selectivity in sugar beet crop (field trial, Table 5). The settings on record: application in the 3-5-leaf stage, scoring 4 weeks after application. The method, then: as §1, §3
Data set [8] concerns transgenic sugar beet. Put plainly: Damage to transgenic sugar beet (field trial, Table 4). Conditions: application in 3-leaf stage. The method, then: as §1, §3
Where [9] appears, read: dose 3500 g A.S./ha pre-emergence.
Setting [10] is: dose 200 g A.S./ha post-emergence at the 2-3-leaf stage.

SMILES strings stand for the structures. Where a name gives a salt, the structure may show the parent alone.

For the molecule `Cc1nnc(-c2ccccc2)c(=O)n1N` [(B1.4), 4-amino-4,5-dihydro-3-methyl-6-phenyl-1,2,4-triazin-5-one], the “Damage to transgenic sugar beet” value in the data set with transgenic sugar beet [1] (dose 750 g A.S./ha), in the data set with transgenic sugar beet [1] (dose 1500 g A.S./ha) and in the data set on transgenic sugar beet [1] (dose 3000 g A.S./ha) was 0 throughout. In addition, the “Herbicidal action in % against Galium aparine” value in the data set with Galium aparine [2] (dose 750 g A.S./ha), in the data set on Galium aparine [2] (dose 1500 g A.S./ha) and in the data set on Galium aparine [2] (dose 3000 g A.S./ha) was 5% throughout. Also, the “Herbicidal action in % against Amaranthus retroflexus” value in the data set on Amaranthus retroflexus (setting [9]) is listed as 73%. Besides, the “Herbicidal action in % against Setaria viridis” value with Setaria viridis [3] (setting [9]) turned out to be 20%.

`CP(=O)(O)CCC(N)C(=O)O` (stereo not drawn) [(A1.2), glufosinate monoammonium salt]: the “Herbicidal action in % against Setaria viridis” value worked out at 35% with Setaria viridis [4] (dose 37.5 g A.S./ha); 85% in the data set with Setaria viridis [4] (dose 75 g A.S./ha); 95% in the data set on Setaria viridis [4] (dose 150 g A.S./ha); 98% in the data set with Setaria viridis [4] (dose 300 g A.S./ha); 60% with Setaria viridis [3] (setting [10]). Moreover, the “Herbicidal action in % against Kochia scoparia” value with Kochia scoparia (dose 250 g A.S./ha) stood at 30%; in the data set on Kochia scoparia (dose 300 g A.S./ha), 52%; in the data set with Kochia scoparia (dose 600 g A.S./ha), 75%. For the same molecule, the “Herbicidal action in % against Galium aparine” value in the data set with Galium aparine [5] (dose 250 g A.S./ha) was 20%; in the data set on Galium aparine [5] (dose 300 g A.S./ha), 40%; with Galium aparine [5] (dose 600 g A.S./ha), 85%; with Galium aparine [2] (dose 125 g A.S./ha), 45%; with Galium aparine [2] (dose 250 g A.S./ha) it was 60%; in the data set on Galium aparine [2] (dose 500 g A.S./ha), 85%. Also, the “Damage to transgenic sugar beet” value with transgenic sugar beet [1] (dose 125 g A.S./ha), in the data set on transgenic sugar beet [1] (dose 250 g A.S./ha), in the data set on transgenic sugar beet [1] (dose 500 g A.S./ha), in the data set with transgenic sugar beet [6] (dose 37.5 g A.S./ha), with transgenic sugar beet [6] (dose 75 g A.S./ha) and in the data set with transgenic sugar beet [6] (dose 150 g A.S./ha) was 0 each time. Also, the “Damage to transgenic sugar beet” value in the data set on transgenic sugar beet [6] (dose 300 g A.S./ha), in the data set with transgenic sugar beet [7] (dose 150 g A.S./ha), in the data set on transgenic sugar beet [7] (dose 300 g A.S./ha), with transgenic sugar beet [7] (dose 600 g A.S./ha), with transgenic sugar beet [8] (dose 0 g A.S./ha) and with transgenic sugar beet [8] (dose 10 g A.S./ha) was 0 throughout. Besides, the “Damage to transgenic sugar beet” value in the data set with transgenic sugar beet [8] (dose 65 g A.S./ha) is listed as 0. Moreover, the “Herbicidal action in % against Echinochloa crus-galli” value with Echinochloa crus-galli was determined as 45%; with Echinochloa crus-galli (dose 10 g A.S./ha), 60%; with Echinochloa crus-galli (dose 65 g A.S./ha), 85%. In addition, the “Herbicidal action in % against Avena fatua” value in the data set with Avena fatua (dose 150 g A.S./ha) amounted to 30%; in the data set with Avena fatua (dose 300 g A.S./ha), 65%; with Avena fatua (dose 600 g A.S./ha), 95%. Besides, the “Herbicidal action in % against Amaranthus retroflexus” value in the data set with Amaranthus retroflexus (setting [10]) is on record as 55%.
